Laboratory results published in US10517889B2, “Modulators of SMAD7 expression” (Ionis Pharmaceuticals, Inc., priority 2017, dated 2019).
Strand notation (5' to 3'): a small letter for the sugar, then the base; units joined by * are phosphorothioate-linked, units joined directly phosphodiester-linked; [ ] holds rarer units or linkages, { } end groups; capitals alone tell only the bases. k = constrained ethyl (cEt); [5mC] = 5-methylcytosine; d = 2'-deoxy (DNA)

Test system: human SMAD7 mRNA
Assay: Antisense inhibition of human SMAD7 mRNA expression in Hep3B cells by 3-10-3 cEt gapmers, 10,000 nM, electroporation (Example 2)
Assay type: cell-based
Conditions: Hep3B cells, approximately 24 hours; for % inhibition of SMAD7 mRNA expression: electroporation, 10,000 nM antisense oligonucleotide, RTS5062, relative to untreated control cells; for % Inhibition: electroporation with 10,000 nM antisense oligonucleotide, RTS5062, percent inhibition of SMAD7 mRNA relative to untreated control cells
Procedure, shortened: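 Percent inhibition of SMAD7 mRNA, relative to untreated cells, after ~24 h exposure of electroporated Hep3B cells to 10,000 nM cEt gapmer; levels by qRT-PCR, corrected for total RNA.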

## 799654 (antisense kG*k[5mC]*kT*dG*dA*dA*dT*dA*dA*d[5mC]*d[5mC]*dT*dA*k[5mC]*kA*kA) [compound 799654]
  % inhibition of SMAD7 mRNA expression: 22%

## 799655 (antisense kT*kG*k[5mC]*dA*dG*d[5mC]*dT*dG*dA*dA*dT*dA*dA*k[5mC]*k[5mC]*kT) [compound 799655]
  % inhibition of SMAD7 mRNA expression: 47%

## 799656 (antisense k[5mC]*kT*kA*dA*d[5mC]*dT*dG*dG*dG*d[5mC]*dA*dG*dG*kT*k[5mC]*k[5mC]) [compound 799656]
  % inhibition of SMAD7 mRNA expression: 60%

## 799657 (antisense kT*kA*k[5mC]*dA*dA*dG*dT*dG*dG*dT*dT*dG*d[5mC]*kT*kG*kG) [compound 799657]
  % inhibition of SMAD7 mRNA expression: 62%

## 799658 (antisense kA*kA*k[5mC]*dT*dA*d[5mC]*dA*dA*dG*dT*dG*dG*dT*kT*kG*k[5mC]) [compound 799658]
  % inhibition of SMAD7 mRNA expression: 22%

## 799659 (antisense kA*kA*kA*dT*dA*dA*d[5mC]*dT*dA*d[5mC]*dA*dA*dG*kT*kG*kG) [compound 799659]
  % inhibition of SMAD7 mRNA expression: 57%

## 799660 (antisense kT*kG*kG*dG*dA*dG*d[5mC]*dA*d[5mC]*dT*dT*d[5mC]*dT*kT*kT*kT) [compound 799660]
  % inhibition of SMAD7 mRNA expression: 35%

## 799661 (antisense k[5mC]*kT*k[5mC]*d[5mC]*dA*d[5mC]*dT*dG*d[5mC]*d[5mC]*dT*d[5mC]*d[5mC]*kT*kA*k[5mC]) [compound 799661]
  % inhibition of SMAD7 mRNA expression: 44%

## 799662 (antisense k[5mC]*kG*kT*dG*dA*dG*d[5mC]*dA*d[5mC]*dT*dT*d[5mC]*dT*kG*kT*k[5mC]) [compound 799662]
  % Inhibition: 55%

## 799664 (antisense kG*k[5mC]*k[5mC]*dA*dG*d[5mC]*dA*dA*dG*dG*dA*dT*d[5mC]*kA*kA*kA) [compound 799664]
  % Inhibition: 8%

## 799665 (antisense kG*kA*kT*dG*d[5mC]*d[5mC]*dA*dG*d[5mC]*dA*dA*dG*dG*kA*kT*k[5mC]) [compound 799665]
  % Inhibition: 57%

## 799666 (antisense k[5mC]*kA*kG*dA*dT*dG*d[5mC]*d[5mC]*dA*dG*d[5mC]*dA*dA*kG*kG*kA) [compound 799666]
  % Inhibition: 51%

## 799670 (antisense kT*k[5mC]*kT*dG*dA*dG*dA*d[5mC]*dT*dA*dT*dG*dA*k[5mC]*kA*kG) [compound 799670]
  % Inhibition: 51%

## 799672 (antisense kA*k[5mC]*kA*dG*dG*dA*dT*dG*dG*dA*dG*d[5mC]*dA*kA*kT*kG) [compound 799672]
  % inhibition of SMAD7 mRNA expression: 41%

## 799675 (antisense kT*k[5mC]*k[5mC]*d[5mC]*dA*dG*dT*dT*d[5mC]*dA*dT*dG*dA*kT*k[5mC]*kA) [compound 799675]
  % inhibition of SMAD7 mRNA expression: 0%

## 799676 (antisense kG*kA*kA*dA*d[5mC]*d[5mC]*dA*dT*dG*dA*dG*d[5mC]*dT*kG*kT*kT) [compound 799676]
  % inhibition of SMAD7 mRNA expression: 64%

## 799677 (antisense kG*k[5mC]*kT*d[5mC]*dA*dT*dG*dA*dG*d[5mC]*dA*dT*dT*kT*kG*kG) [compound 799677]
  % inhibition of SMAD7 mRNA expression: 68%

## 799678 (antisense k[5mC]*kA*k[5mC]*dA*dA*dG*d[5mC]*dA*d[5mC]*d[5mC]*dT*dG*dT*k[5mC]*k[5mC]*kA) [compound 799678]
  % inhibition of SMAD7 mRNA expression: 0%

## 799679 (antisense k[5mC]*kT*kG*d[5mC]*dA*dG*dG*dG*dT*dA*d[5mC]*dT*dA*kA*kG*kG) [compound 799679]
  % inhibition of SMAD7 mRNA expression: 0%

## 799680 (antisense kG*kA*kG*dT*dT*d[5mC]*dT*dA*dG*dG*d[5mC]*d[5mC]*dG*kT*k[5mC]*kA) [compound 799680]
  % inhibition of SMAD7 mRNA expression: 33%

## 799681 (antisense kA*k[5mC]*kT*d[5mC]*dA*dT*d[5mC]*d[5mC]*dT*dG*dT*dT*dG*kG*k[5mC]*kA) [compound 799681]
  % inhibition of SMAD7 mRNA expression: 53%

## 799682 (antisense kG*kG*kT*d[5mC]*d[5mC]*dA*dG*dG*dA*d[5mC]*dT*dG*dG*kT*k[5mC]*kT) [compound 799682]
  % Inhibition: 55%

## 799683 (antisense k[5mC]*kT*kG*d[5mC]*dA*dG*dA*dA*dG*dA*dG*dG*d[5mC]*kG*kG*kG) [compound 799683]
  % Inhibition: 32%

## 799684 (antisense kA*kA*kT*dG*d[5mC]*dT*dG*dT*d[5mC]*dA*d[5mC]*d[5mC]*d[5mC]*kT*kG*kT) [compound 799684]
  % Inhibition: 52%

## 799685 (antisense kG*kA*kT*dT*dT*dT*dA*dA*dA*dT*dG*d[5mC]*dT*kG*kT*k[5mC]) [compound 799685]
  % Inhibition: 25%

## 799687 (antisense kG*kG*k[5mC]*dA*dG*d[5mC]*dA*dG*dA*d[5mC]*d[5mC]*dA*dT*k[5mC]*kT*kT) [compound 799687]
  % Inhibition: 35%

## 799688 (antisense k[5mC]*kA*k[5mC]*d[5mC]*dA*d[5mC]*d[5mC]*d[5mC]*dA*dA*dA*dG*d[5mC]*k[5mC]*kT*kG) [compound 799688]
  % Inhibition: 50%

## 799690 (antisense kA*kG*k[5mC]*dT*dA*d[5mC]*dA*dG*dT*d[5mC]*dA*dG*dG*k[5mC]*kT*kT) [compound 799690]
  % Inhibition: 51%

## 799691 (antisense kT*k[5mC]*k[5mC]*d[5mC]*dA*dT*dA*dG*dG*dT*dG*dT*dA*k[5mC]*kA*kA) [compound 799691]
  % Inhibition: 49%

## 799692 (antisense kA*k[5mC]*kA*d[5mC]*dA*dG*dT*dA*dA*d[5mC]*dA*dA*d[5mC]*kA*kA*kT) [compound 799692]
  % inhibition of SMAD7 mRNA expression: 0%

## 799693 (antisense kT*kT*kA*dT*dG*dA*d[5mC]*dA*d[5mC]*dA*dG*dT*dA*kA*k[5mC]*kA) [compound 799693]
  % inhibition of SMAD7 mRNA expression: 17%

## 799694 (antisense kA*kA*kG*dG*dA*dA*dT*dT*dA*dT*dG*dA*d[5mC]*kA*k[5mC]*kA) [compound 799694]
  % inhibition of SMAD7 mRNA expression: 7%

## 799695 (antisense k[5mC]*k[5mC]*kA*dG*dG*dA*dA*d[5mC]*d[5mC]*dA*dG*d[5mC]*dA*k[5mC]*kT*kT) [compound 799695]
  % inhibition of SMAD7 mRNA expression: 6%

## 799696 (antisense kA*kA*kG*dT*dT*dA*dT*d[5mC]*dT*dG*dG*dG*dA*kA*kG*k[5mC]) [compound 799696]
  % inhibition of SMAD7 mRNA expression: 43%

## 799697 (antisense kA*kA*kT*dA*dG*dT*dT*dT*dT*d[5mC]*dT*d[5mC]*dT*k[5mC]*kA*kA) [compound 799697]
  % inhibition of SMAD7 mRNA expression: 59%

## 799698 (antisense kT*kA*kA*dT*dA*dG*dT*dT*dT*dT*d[5mC]*dT*d[5mC]*kT*k[5mC]*kA) [compound 799698]
  % inhibition of SMAD7 mRNA expression: 33%

## 799699 (antisense k[5mC]*kA*kA*dA*dA*d[5mC]*dA*dG*dT*dG*dG*dA*d[5mC]*k[5mC]*kA*kT) [compound 799699]
  % inhibition of SMAD7 mRNA expression: 57%

## 799700 (antisense k[5mC]*kA*kT*dG*dA*d[5mC]*dA*dG*d[5mC]*dA*dA*dA*dG*k[5mC]*kA*kA) [compound 799700]
  % inhibition of SMAD7 mRNA expression: 49%

## 799701 (antisense k[5mC]*kT*kA*d[5mC]*dA*dG*dT*dT*d[5mC]*d[5mC]*dA*dG*dA*kA*k[5mC]*kA) [compound 799701]
  % inhibition of SMAD7 mRNA expression: 46%

## 799702 (antisense k[5mC]*kA*kT*d[5mC]*dA*d[5mC]*d[5mC]*dA*d[5mC]*dT*d[5mC]*dT*dA*k[5mC]*kA*kG) [compound 799702]
  % Inhibition: 43%

## 799703 (antisense k[5mC]*k[5mC]*kA*dA*dT*dG*dG*d[5mC]*dA*dT*dT*dG*dA*kA*kT*kA) [compound 799703]
  % Inhibition: 45%

## 799704 (antisense kA*k[5mC]*k[5mC]*dA*dA*dT*dG*dG*d[5mC]*dA*dT*dT*dG*kA*kA*kT) [compound 799704]
  % Inhibition: 12%

## 799705 (antisense kA*kA*k[5mC]*dT*dT*dA*dA*dA*dA*dT*dG*dT*dG*k[5mC]*k[5mC]*kA) [compound 799705]
  % Inhibition: 26%

## 799706 (antisense k[5mC]*kT*kT*dG*dT*dG*dG*dT*dA*dA*dA*dA*dT*kA*k[5mC]*kA) [compound 799706]
  % Inhibition: 47%

## 799707 (antisense kA*kA*kA*d[5mC]*dT*dT*dG*dT*dG*dG*dT*dA*dA*kA*kA*kT) [compound 799707]
  % Inhibition: 38%

## 799710 (antisense kG*kT*k[5mC]*dA*dA*dA*d[5mC]*dT*dT*dG*dT*dG*dG*kT*kA*kA) [compound 799710]
  % Inhibition: 48%

## 799713 (antisense k[5mC]*kA*k[5mC]*dA*dA*dT*d[5mC]*dA*d[5mC]*dT*dG*dT*dT*k[5mC]*k[5mC]*kT) [compound 799713]
  % inhibition of SMAD7 mRNA expression: 0%

## 799714 (antisense k[5mC]*kA*k[5mC]*d[5mC]*dA*dA*dA*dA*d[5mC]*dA*dA*dG*dT*kG*kT*k[5mC]) [compound 799714]
  % inhibition of SMAD7 mRNA expression: 33%

## 799715 (antisense k[5mC]*k[5mC]*kT*d[5mC]*dA*dG*dG*dG*d[5mC]*dT*dG*d[5mC]*d[5mC]*kA*k[5mC]*k[5mC]) [compound 799715]
  % inhibition of SMAD7 mRNA expression: 32%

## 799716 (antisense kG*kG*k[5mC]*dT*dA*d[5mC]*d[5mC]*dA*dG*d[5mC]*d[5mC]*dT*dT*kG*k[5mC]*kT) [compound 799716]
  % inhibition of SMAD7 mRNA expression: 32%

## 799717 (antisense kG*k[5mC]*kA*dG*dG*d[5mC]*dT*dA*d[5mC]*d[5mC]*dA*dG*d[5mC]*k[5mC]*kT*kT) [compound 799717]
  % inhibition of SMAD7 mRNA expression: 0%

## 799719 (antisense k[5mC]*k[5mC]*kT*dT*dT*d[5mC]*dT*dA*d[5mC]*dT*dA*dG*dA*kA*kA*kA) [compound 799719]
  % inhibition of SMAD7 mRNA expression: 19%
